{
  "source": "patent US20200115314A1",
  "about": "“METHOD OF PRODUCING PLASTICIZER AND REDUCING ENERGY CONSUMPTION” (SABIC Global Technologies B.V., priority 2017, published 2020)",
  "assay_type_in_all_cases": "physicochemical",
  "key": {"[1]": {"assay": "Repeated solubility test for trimellitic anhydride in 2-ethyl hexanol", "description": "The temperature range for complete dissolution of trimellitic anhydride was further repeated by varying the temperature in a range of 110° C. to 149° C. when the molar ratio of trimellitic anhydride to 2-ethyl hexanol was kept at 1:3.25. About 100 g of trimellitic anhydride was used. When a complete dissolution of trimellitic anhydride was observed, the amount of water formed during the dissolution and total time consumed for dissolution are recorded."}, "[2]": {"assay": "Solubility tests for trimellitic anhydride in 2-ethyl hexanol", "description": "Tri octyl trimellitate (TOTM) is one of the most commonly used non-phthalate based plasticizers. Tri octyl trimellitate is produced via esterification reaction between trimellitic anhydride (TMA) and 2-ethyl hexanol (2-EH). According to embodiments of the invention, trimellitic anhydride may be dissolved in 2-ethyl hexanol before it is transferred to an esterification reactor. Thus, the solubility of trimellitic anhydride in 2-ethyl hexanol was tested under various molar ratios of trimellitic anhydride to 2-ethyl hexanol. In this experiment, a hundred grams of trimellitic anhydride was initially added to 2-ethyl hexanol at a molar ratio of 1:1 to form a mixture. The temperature of the mixture was controlled in a range of 110° C. to 150 ° C. Additional 2-ethyl hexanol was gradually added to the mixture to change the molar ratio of trimellitic anhydride to 2-ethyl hexanol until complete dissolution of trimellitic anhydride in 2-ethyl hexanol was observed. The amount of added 2-ethyl hexanol was recorded to obtain a molar ratio needed for the complete dissolution of trimellitic anhydride."}, "[3]": {"assay": "Solubility tests for trimellitic anhydride in 2-ethyl hexanol", "remark": "listed apart in the source"}},
  "data": [
    {"compound": "O=C(O)c1ccc2c(c1)C(=O)OC2=O", "note": "[trimellitic anhydride]", "values": [
      {"measurement": "Time for complete dissolution", "setting": "[1]; about 149 °C, molar ratio about 1:3.25", "value": "20 to 30", "unit": "min"},
      {"measurement": "Dissolution", "setting": "[1]; in 2-ethyl hexanol, TMA:2-EH molar ratio 1:3.25, 110-149 °C", "value": "Yes"},
      {"measurement": "Temperature at which the mixture becomes milky", "setting": "[1]; on cooling, molar ratio 1:3.25", "value": 60, "unit": "°C"},
      {"measurement": "Temperature at which turbidity starts forming in the solution", "setting": "[1]; on cooling, molar ratio 1:3.25", "value": 65, "unit": "°C"},
      {"measurement": "Dissolution", "setting": "[2]; TMA:2-EH molar ratio 1:1, 110-150 °C", "value": "No"},
      {"measurement": "Dissolution", "setting": "[2]; TMA:2-EH molar ratio 1:2, 110-150 °C", "value": "No"},
      {"measurement": "Dissolution", "setting": "[2]; TMA:2-EH molar ratio 1:2.5, 110-150 °C", "value": "No"},
      {"measurement": "Dissolution", "setting": "[2]; TMA:2-EH molar ratio 1:3, 110-150 °C", "value": "No"},
      {"measurement": "Dissolution", "setting": "[2]; TMA:2-EH molar ratio 1:3.25, 110-150 °C", "value": "Yes"},
      {"measurement": "Temperature at which water formation starts", "setting": "[3]; TMA:2-EH molar ratio 1:1, no catalyst", "value": "at 135 °C"},
      {"measurement": "Temperature at which water formation starts", "setting": "[3]; TMA:2-EH molar ratio 1:2, no catalyst", "value": "at 135 °C"},
      {"measurement": "Temperature at which water formation starts", "setting": "[3]; TMA:2-EH molar ratio 1:2.5, no catalyst", "value": "at 135 °C"},
      {"measurement": "Temperature at which water formation starts", "setting": "[3]; TMA:2-EH molar ratio 1:3, no catalyst", "value": "at 135 °C"},
      {"measurement": "Temperature at which water formation started", "setting": "[3]; at each molar ratio, without catalysts", "value": 135, "unit": "°C"}
    ]}
  ]
}
